The subject of the experiment is HIF-1α and Ub-HIF-1α. Put plainly: Proteasome inhibition and HIF-1α ubiquitination, Western blot. In kind it is cell-based. The settings on record: PC-3-Neo cells, 4 hours, 5 and 20 μM. The procedure: FIGS. 19a-b are Western blot analyses depicting the effect of proteasome inhibition on HIF-1α (FIG. 19a) or actin (FIG. 19b) expression levels in PC-3-MSF-A or PC-3-Neo cells. PC-3-Neo (lanes 1-3) and PC-3-MSF-A (lanes 4-6) cells were treated for 4 hours with either 0.1 DMSO (lanes 1 and 4) or with 5 (lanes 2 and 5) and 20 (lanes 3 and 6) μM MG-132. Whole cell lysates were prepared and equal amounts of protein from each cell lysate were resolved by SDS-PAGE, transferred and immunoblotted with antibodies against HIF-1α (FIG. 19a) and actin (FIG. 19b). Ub-HIF-1α points to ubiquitinated HIF-1α protein species.
FIGS. 20a-b are Western blot analyses of HIF-1α immunoprecipitates depicting the expression level of HIF-1α (FIG. 20a) and ubiquitin (FIG. 20b) in PC-3-Neo and PC-3-MSF-A cells. PC-3-Neo (lanes 1-2) and PC-3-MSF-A (lanes 3-4) cells were treated for 4 hours with either 0.1 DMSO (lanes 1 and 3) or with 10 μM MG-132 (lanes 2 and 4). Whole cell lysates were prepared and subjected to immunoprecipitation (IP) with HIF-1α antibody. Immunoprecipitates were resolved on SDS-PAGE and immunoblotted (IB) with HIF-1α (FIG. 20a) and ubiquitin (FIG. 20b) antibodies. Ub-HIF-1α points to ubiquitinated HIF-1α protein species.
To study the ubiquitination of the endogenous HIF-1α in cells over-expressing MSF-A protein, the proteasome inhibitor MG-132 was used. […]
(In general: A western blot detects proteins with antibodies after separation by electrophoresis.)

The record followed here is patent US8143228B2, “Agents capable of downregulating an MSF-A dependent HIF-1α and use thereof in cancer treatment” (Medical Research Fund of Tel Aviv Sourasky Medical Center, priority 2004, dated 2012).

Where a SMILES comes first, the peptide text is derived from it. The star is where a group is joined. Cbz = O=C(OCc1ccccc1)*

Consider `CC(C)C[C@@H](C=O)NC(=O)[C@H](CC(C)C)NC(=O)[C@H](CC(C)C)NC(=O)OCc1ccccc1` [MG-132] (Cbz-Leu-Leu-Leu-aldehyde), for which the “expression of HIF-1α and Ub-HIF-1α” value is “induced the expression of HIF-1α and Ub-HIF-1α”.
